Laboratory results as given in patent US20170239173A1, “TRANSDERMAL ABSORPTION ENHANCER AND TRANSDERMAL ABSORPTION ENHANCEMENT AID” (ASAHI KASEI KABUSHIKI KAISHA, priority 2014, published 2017).
Values joined by “and” are separate entries in the source; they are usually repeats but may differ in a detail not shown here. Identical values can stand only once.

system: hairless mouse skin (Laboskin); assay: not given; details: not given

SMILES | Transdermal penetrability of MZR (hairless mouse) | Transdermal penetrability of MZR
O=C(O)CCC(=O)O [Succinic acid] | Not penetrated | –
CC(=O)O [Acetic acid] | Not penetrated | –
CCCCC/C=C\C/C=C\CCCCCCCC(=O)O [Linoleic acid] | Penetrated | –
C[N+](C)(C)CCO [choline] | – | Penetrated

system: not given; assay: not given; details: partition coefficient between water and 1-octanol; cited from earlier work

SMILES | Log P
O=C(O)CCCCCCCC(=O)O [azelaic acid] | 1.6
N[C@@H](CCC(=O)N[C@@H](CS)C(=O)NCC(=O)O)C(=O)O [glutathione] | −4.5
CN1CCN(CC(=O)N2c3ccccc3C(=O)Nc3cccnc32)CC1 [pirenzepine] | 0.1
CC(C)(C)NCC(O)CSc1nc(-c2ccc(C(N)=O)s2)cs1 (stereo not drawn) [arotinolol] | 2.3
COC(=O)[C@@H]1CC2=CC(=O)CC[C@]2(C)[C@@]23O[C@@H]2C[C@@]2(C)[C@@H](CC[C@@]24CCC(=O)O4)[C@H]13 [eplerenone] | 1.4
NC(N)=Nc1nc(CSCCC(N)=NS(N)(=O)=O)cs1 [famotidine] | −0.6
C[N+](C)(C)C[C@H](O)CC(=O)[O-] [L-carnitine] | −0.2
N[C@@H](Cc1c[nH]c2ccccc12)C(=O)O [tryptophan] | −1.1
O=P(O)(O)C(O)(Cc1cccnc1)P(=O)(O)O [risedronate] | −3.5
Clc1cccc(Cl)c1N=C1NCCN1 [clonidine] | 1.6
O=C(NC(Cc1cc(=O)[nH]c2ccccc12)C(=O)O)c1ccc(Cl)cc1 (stereo not drawn) [rebamipide] | 2.4
NNc1nncc2ccccc12 [hydralazine] | 0.7
OC[C@H]1O[C@@H](Oc2ccc(O)cc2)[C@H](O)[C@@H](O)[C@@H]1O [arbutin] | −0.6
COc1cc(C)nc(-n2nc(C)cc2OC)n1 [epirizole] | 1.3
CCOC(=O)[C@H](CCc1ccccc1)N[C@@H](C)C(=O)N(CC(=O)O)C1Cc2ccccc2C1 [delapril] | 1.7
Cc1[nH]c(=O)c(C#N)cc1-c1ccncc1 [milrinone] | 0
O=C(O)CCC(=O)O [Succinic acid] | (LogP = −0.6)
Oc1cccc(O)c1 [resorcin] | 0.8
CCOC(=O)Oc1ccc(CCNC(=O)[C@H](CCSC)NC(C)=O)cc1OC(=O)OCC [docarpamine] | 2.9
Nc1cc(N2CCCCC2)nc(N)[n+]1[O-] [minoxidil] | 1.2
N[C@@H](CO)C(=O)O [serine] | −3.1
CC[C@H](C)[C@H](N)C(=O)O [L-Isoleucine] | (LogP = −3.69)

SMILES | Log P
CC(C)NCC(O)c1ccc(O)c(O)c1 (stereo not drawn) [isoprenaline] | −0.6
COc1cc2nc(N3CCN(C(=O)C4CCCO4)CC3)nc(N)c2cc1OC (stereo not drawn) [terazosin] | 1.4
COc1ccc(C(=O)N2CCN(c3ccc4c(c3)CCC(=O)N4)CC2)cc1OC [vesnarinone] | 2.1
NCCc1ccc(O)c(O)c1 [dopamine] | −1
Cc1cc2c(cc1S(N)(=O)=O)S(=O)(=O)CCC2 [meticrane] | 0.5
Oc1ccc(O)cc1 [hydroquinone] | −0.6
C[C@H](N)C(=O)O [alanine] | −3
C[C@H](CS)C(=O)N1CCC[C@H]1C(=O)O [captopril] | 0.3
OC[C@H]1O[C@H](OC[C@H]2O[C@H](O[C@]3(CO)O[C@H](CO)[C@@H](O)[C@@H]3O)[C@H](O)[C@@H](O)[C@@H]2O)[C@H](O)[C@@H](O)[C@H]1O [raffinose] | −5.8
CCOC(=O)[C@H](CCc1ccccc1)N[C@@H](C)C(=O)N1[C@H](C(=O)O)C[C@H]2CCCC[C@@H]21 [trandolapril] | 2
CCCCCCCCCCCCCC(=O)OC(C)C [IPM, isopropyl myristate] | 7.2
CCN(CC)CCNC(=O)c1ccc(N)cc1 [procainamide] | 0.9
O=C1O[C@H]([C@@H](O)CO)C(O)=C1O [L-ascorbic acid] | −1.6
O=C(C[S+]([O-])Cc1ccco1)NC/C=C\COc1cc(CN2CCCCC2)ccn1 (stereo not drawn) [lafutidine] | 1.4
O=c1cc(CO)occ1O [kojic acid] | −0.9
NCCS(=O)(O)=S [thiotaurine] | −0.1
CCOC(=O)[C@H](CCc1ccccc1)N[C@H]1CCCN2CCC[C@@H](C(=O)O)N2C1=O [cilazapril] | 0.6
NS(=O)(=O)c1cc2c(cc1Cl)NC(C(Cl)Cl)NS2(=O)=O (stereo not drawn) [trichlormethiazide] | 0.6
CCOC(=O)C1=C(COCCN)NC(C)=C(C(=O)OC)C1c1ccccc1Cl (stereo not drawn) [amlodipine] | 3
CCOC(=O)[C@H](CCc1ccccc1)N[C@@H](C)C(=O)N1Cc2ccccc2C[C@H]1C(=O)O [quinapril] | 1.2
Cc1c(C(C)C)c(=O)n(-c2ccccc2)n1C [isopropylantipyrine] | 1.7
O[C@@H]1CO[C@H]2[C@@H]1OC[C@@H]2O [isosorbide] | −1.4

SMILES | Log P
CCCCCCCC(=O)OCC(COC(=O)CCCCCCC)OC(=O)CCCCCCC [Tricaprylin, glycerin tricaprylate] | 8.9
CCC[C@H](N[C@@H](C)C(=O)N1[C@H](C(=O)O)C[C@@H]2CCCC[C@@H]21)C(=O)OCC [perindopril] | 0.9
CNC(=C[N+](=O)[O-])NCCSCc1csc(CN(C)C)n1 [nizatidine] | 1.6
CCOC(=O)[C@H](CCc1ccccc1)N[C@H]1CS[C@H](c2cccs2)CN(CC(=O)O)C1=O [temocapril] | 1
C[C@@](Cc1ccc(O)c(O)c1)(NN)C(=O)O [carbidopa] | −2.2
Nc1cc(-c2ccncc2)c[nH]c1=O [amrinone] | −0.2
C=CC[C@@H]1/C=C(\C)C[C@H](C)C[C@H](OC)[C@H]2O[C@@](O)(C(=O)C(=O)N3CCCC[C@H]3C(=O)O[C@H](/C(C)=C/[C@@H]3CC[C@@H](O)[C@H](OC)C3)[C@H](C)[C@@H](O)CC1=O)[C@H](C)C[C@@H]2OC [tacrolimus] | 2.7
N[C@@H](CS)C(=O)O [L-cysteine] | −2.5
N[C@@H](Cc1c[nH]cn1)C(=O)O [histidine] | −3.2
CC(C)NCC(O)c1ccc(NS(C)(=O)=O)cc1 (stereo not drawn) [sotalol] | 0.2
c1ccc(CC2=NCCN2)cc1 [tolazoline] | 2.6
CCOC(=O)[C@H](CCc1ccccc1)N[C@@H](C)C(=O)N1C(=O)N(C)C[C@H]1C(=O)O [imidapril] | −0.7
Cc1oncc1C(=O)Nc1ccc(C(F)(F)F)cc1 [leflunomide] | 2.6
CCCCc1ccc(O)cc1O [rucinol] | 2.4
CCOC(=O)[C@H](CCc1ccccc1)N[C@@H](C)C(=O)N1CCC[C@H]1C(=O)O [enalapril] | −0.1
Cc1cccc(Nc2ccncc2S(=O)(=O)NC(=O)NC(C)C)c1 [torasemide] | 2.7
O=C(O)c1cccnc1 [nicotinic acid] | 0.4
NCCCC[C@H](N[C@@H](CCc1ccccc1)C(=O)O)C(=O)N1CCC[C@H]1C(=O)O [lisinopril] | −2.9 and −3.0
COc1ccccc1O [guaiacol] | 1.3
NC(=O)NC1NC(=O)NC1=O (stereo not drawn) [allantoin] | −2.2
NS(=O)(=O)c1cc(C2(O)NC(=O)c3ccccc32)ccc1Cl (stereo not drawn) [chlorthalidone] | 0.9
N[C@H]1C(O)O[C@H](CO)[C@@H](O)[C@@H]1O (stereo partly drawn) [D-glucosamine] | −2.8

SMILES | Log P
CC(=O)Nc1ccc(CC(=O)O)cc1 [actarit] | 0.4
CC(C)(S)[C@@H](N)C(=O)O [D-penicillamine] | −1.8
CC(C)(CO)[C@@H](O)C(=O)NCCC(=O)O [pantothenic acid] | −1.1
COc1ccc(CCNCC(O)COc2cccc(C)c2)cc1OC (stereo not drawn) [bevantolol] | 3
CC(O)(P(=O)(O)O)P(=O)(O)O [etidronic acid] | −3.7
Cc1cccc(C)c1NC(=O)CC12CCCN1CCC2 [pilsicainide] | 2.7
CN(CC1(C)CCCO1)S(=O)(=O)c1ccc(Cl)c(S(N)(=O)=O)c1 (stereo not drawn) [mefruside] | 0.9
O=C(O)CCCC[C@@H]1SC[C@@H]2NC(=O)N[C@@H]21 [biotin] | 0.3
CC(=O)N[C@H]1C(O)O[C@H](CO)[C@@H](O)[C@@H]1O (stereo partly drawn) [N-acetyl-D-glucosamine] | −1.7
CC(=O)SC[C@@H](C)C(=O)N1CCC[C@H]1C(=O)N[C@@H](Cc1ccccc1)C(=O)O [alacepril] | 2.1
N=C(N)NC(=O)Cc1c(Cl)cccc1Cl [guanfacine] | 2
C[N+](C)(C)CCO [choline] | (LogP = −0.4
Cc1ccc(N(CC2=NCCN2)c2cccc(O)c2)cc1 [phentolamine] | 2.6
NC[C@H]1CC[C@H](C(=O)O)CC1 [tranexamic acid] | −2
Cn1c(NCCN(CCO)CCCc2ccc([N+](=O)[O-])cc2)cc(=O)n(C)c1=O [nifekalant] | 1.1
COc1ccc(CCNC[C@H](O)c2ccc(O)cc2)cc1OC [denopamine] | 1.8
C[C@H]1C[C@@H]2[C@H]([C@@H](O)C[C@@]3(C)[C@H]2CC[C@]3(O)C(=O)CO)[C@@]2(C)C=CC(=O)C=C12 [methylprednisolone] | 1.9
Cc1c(OCC(F)(F)F)ccnc1C[S+]([O-])c1nc2ccccc2[nH]1 (stereo not drawn) [lansoprazole] | 2.8
Nc1nc(N)c2nc(-c3ccccc3)c(N)nc2n1 [triamterene] | 1
COc1ccccc1N1CCN(CCCNc2cc(=O)n(C)c(=O)n2C)CC1 [urapidil] | 1.5
Nc1cc(N2CCCCC2)nc(N)[n+]1[O-] [loniten] | 1.2
CCCC(=O)N1CCCN(c2nc(N)c3cc(OC)c(OC)cc3n2)CC1 [bunazosin] | 2.2

system: not listed separately; assay: Solubility / state of the active ingredient in the preparation (equimolar salt or enhancer); format: physicochemical; details: solubility of MZR in the equimolar salt of the basic compound a) with isostearic acid or linoleic acid

SMILES | MZR dissolution
Nc1ncnc2[nH]cnc12 [Adenine] | Insoluble
CC(O)CN(CC(C)O)CC(C)O (stereo not drawn) [TIPA] | Insoluble
CCn1cc[n+](C)c1.O=S(=O)([O-])C(F)(F)F | Insoluble
COP(=O)([O-])OC.Cn1cc[n+](C)c1 | Insoluble
